# Assay results published in patent US20070265238A1, “METHOD FOR ACCELERATING REENTRAINMENT OF A CIRCADIAN RHYTHM” (priority 2006, published 2007).
# Tested on: body temperature rhythms
# Assay: Reentrainment of body temperature circadian rhythm after eastward jet travel across 6 time zones (Detroit to Vienna)
# Format: in vivo, human
# Conditions: applied beneath nostrils each morning on awakening; for length of time to reestablish stable body temperature rhythms: women, vs control vehicle (mineral oil and clove oil), FIG. 1
# Description: This experimental involved 15 subjects who were traveling from Detroit, Michigan to Vienna, Austria by air, a journey which spanned 6 time zones. The subjects comprised 8 women and 5 men aged 18-19 and 2 women […]. Two groups of compositions were prepared. The first comprised an experimental formulation containing 20 micrograms of 4,16-androstadien-3-one dissolved in a mixture of mineral oil and clove oil. A second composition comprising a control/placebo consisted of the mineral oil and clove oil. The 2 compositions were each packaged in 5 ml and supplied to selected test subjects along with cotton-tipped applicators. The test and control materials were randomly distributed, and participants were unaware of which composition they had obtained.
# Upon arrival in Vienna, each participant was directed to place a small amount of their particular composition directly beneath their nostrils with a new cotton applicator immediately upon awakening each morning. The participants were directed to allow the compositions to remain on their skin for at least an hour.
# External temperature monitors (iButton, Inc., Pittsburgh, Pa.) were affixed to each of the subjects with a gauze protective layer between the skin and the monitoring device. The monitors were covered with neoprene material for insulation against environmental temperature interference and held in place with a waterproof medical bandage which was changed every 3 days or as necessary. The monitoring devices were set to acquire temperature every 10 minutes throughout the entire period of the experiment and for a 3-day period prior to travel. Participants also kept daily event logs to monitor the timing of activities that could influence temperature data such as sleep and wake times, showers, exercise and naps. […]
# Data were analyzed to determine the length of time needed for core temperature rhythms to reentrain with the new time schedule, returning to a phase angle of entrainment similar to that recorded before travel. […]
smiles,measurement,setting,value
"C[C@@]12C=CC[C@H]1[C@@H]1CCC3=CC(=O)CC[C@]3(C)[C@H]1CC2 [4,16-androstadien-3-one]",reentrainment rate of body temperature rhythms,"men, vs control vehicle",no effects
same,length of time to reestablish stable body temperature rhythms,,accelerate reestablishment of body temperature rhythms
same,length of time to reestablish stable body temperature rhythms,listed as pheromone,reentrained significantly faster
